Molecules are shown by their SMILES.

What all share (assay type): in vivo
Conditions in all cases: application rate 1280 g/ha, scored visually after about 3 weeks

In one assay the test system is Abutilon theophrasti. As to the kind of experiment: Pre-emergence herbicidal action, ABUTH. The text has this: (§1) Pre-Emergence Herbicidal Action Seeds of mono- and dicotyledonous weed plants or crop plants were placed in sandy loam in wood fibre pots and covered with soil. The formulated compounds of the general formula (I) according to the invention were then applied to the surface of the covering soil in the form of an aqueous suspension or emulsion at an application rate of 600 l of water/ha (converted) with addition of 0.2% wetting agent. After the treatment, the pots were placed in a greenhouse and kept under good growth conditions for the test plants. After about 3 weeks, the effect was scored visually in percent in comparison to untreated controls. For example, 100% activity=the plants have died, 50% herbicidal activity or damage=plants reduced to 50% or plant material reduced by 50%, 0% activity=like control plants. Here, in the biological tests, the compounds of the general formula (I) according to the invention were in each case employed in a formulation, with the numerations of Tables I.1 to I.77 also applying here. Here, the herbicidal action of the compounds of the general formula (I) according to the invention was examined for the following harmful plants: ABUTH=Abutilon theophrasti The respective herbicidal action was in each case determined at the same point in time after application of the formulation in question, i.e. damage of the harmful plant in question in %. Pre-emergence herbicidal action of the compounds of the general formula (I) according to the invention: […]

Assay [1] has as its system Polygonum convolvulus (=Fallopia convolvulus). The assay is described as follows: Pre-emergence herbicidal action, POLCO.
Description: as §1, with “POLCO=Polygonum convolvulus (=Fallopia convolvulus)” for “ABUTH=Abutilon theophrasti”

The next assay concerns Alopecurus myosuroides. The assay is described as follows: Pre-emergence herbicidal action, ALOMY.
Description: as §1, with “ALOMY=Alopecurus myosuroides” for “ABUTH=Abutilon theophrasti”

In a further assay the test system is Stellaria media. The assay is described as follows: Pre-emergence herbicidal action, STEME.
Description: as §1, with “STEME=Stellaria media” for “ABUTH=Abutilon theophrasti”

Another assay has as its system Amaranthus retroflexus. As to the kind of experiment: Pre-emergence herbicidal action, AMARE.
Description: as §1, with “AMARE=Amaranthus retroflexus” for “ABUTH=Abutilon theophrasti”

`CC1=C(C)C(O)N(C2=NN(c3ccccn3)C(C)(C)C2)C1=O` (stereo not drawn) [I.2-132]: the “Pre-emergence herbicidal action ABUTH, damage of the harmful plant” value (“Pre-emergence herbicidal action ABUTH” for short) with Abutilon theophrasti was 70%. Also, the “Pre-emergence herbicidal action POLCO, damage of the harmful plant” value (from here on “Pre-emergence herbicidal action POLCO”) in assay [1] worked out at 40%. Moreover, in the assay on Alopecurus myosuroides, the “Pre-emergence herbicidal action ALOMY, damage of the harmful plant” value (from here on “Pre-emergence herbicidal action ALOMY”) came out at 70%. Also, the “Pre-emergence herbicidal action STEME, damage of the harmful plant” value (from here on “Pre-emergence herbicidal action STEME”) with Stellaria media is reported as 100%. Further, the “Pre-emergence herbicidal action AMARE, damage of the harmful plant” value (from here on “Pre-emergence herbicidal action AMARE”) with Amaranthus retroflexus was 60%.
For `CC1=C(C)C(O)N(C2=NN(c3ccccc3)C(C(F)(F)F)C2)C1=O` (stereo not drawn) [I.2-1413], the “Pre-emergence herbicidal action ABUTH” value with Abutilon theophrasti came out at 0%. Further, the “Pre-emergence herbicidal action POLCO” value in assay [1] turned out to be 100%. Further, in the assay on Alopecurus myosuroides, the “Pre-emergence herbicidal action ALOMY” value is listed as 70%. Also, in the assay with Stellaria media, the “Pre-emergence herbicidal action STEME” value is listed as 100%. The “Pre-emergence herbicidal action AMARE” value with Amaranthus retroflexus turned out to be 60%.
On to `CCC(=O)OC1C(C)=C(C)C(=O)N1C1=NN(c2ccccn2)C(C)(C)C1` (stereo not drawn) [I.23-132], for which the “Pre-emergence herbicidal action ABUTH” value in the assay on Abutilon theophrasti is given as 0%. In addition, in assay [1], the “Pre-emergence herbicidal action POLCO” value turned out to be 0%. Also, the “Pre-emergence herbicidal action ALOMY” value with Alopecurus myosuroides was 60%. The “Pre-emergence herbicidal action STEME” value with Stellaria media is recorded as 100%. Moreover, in the assay with Amaranthus retroflexus, the “Pre-emergence herbicidal action AMARE” value was 70%.
As for `CCC(=O)OC1C(C)=C(C)C(=O)N1C1=NN(c2ccccc2)CC1` (stereo not drawn) [I.23-621], the “Pre-emergence herbicidal action ABUTH” value with Abutilon theophrasti is on record as 0%. The “Pre-emergence herbicidal action POLCO” value in assay [1] was 100%. Besides, the “Pre-emergence herbicidal action ALOMY” value in the assay with Alopecurus myosuroides is 0%. Further, the “Pre-emergence herbicidal action STEME” value in the assay on Stellaria media worked out at 0%. In the assay with Amaranthus retroflexus, the “Pre-emergence herbicidal action AMARE” value amounted to 40%.
Take `CCC(=O)OC1C(C)=C(C)C(=O)N1C1=NN(c2ccccc2)C(C(F)(F)F)C1` (stereo not drawn) [I.23-1413]: the “Pre-emergence herbicidal action ABUTH” value with Abutilon theophrasti is 0%. In addition, the “Pre-emergence herbicidal action POLCO” value in assay [1] is listed as 80%. In the assay on Alopecurus myosuroides, the “Pre-emergence herbicidal action ALOMY” value is 0%. Further, the “Pre-emergence herbicidal action STEME” value with Stellaria media is 80%. The “Pre-emergence herbicidal action AMARE” value in the assay with Amaranthus retroflexus is 50%.
Consider `CCC(=O)OC1C(C)=C(Cl)C(=O)N1C1=NN(C)C(c2ccccc2)C1` (stereo not drawn) [I.24-1126], for which the “Pre-emergence herbicidal action ABUTH” value with Abutilon theophrasti was determined as 0%. In assay [1], the “Pre-emergence herbicidal action POLCO” value was found to be 0%. Besides, in the assay on Alopecurus myosuroides, the “Pre-emergence herbicidal action ALOMY” value turned out to be 10%. Also, the “Pre-emergence herbicidal action STEME” value in the assay on Stellaria media came to 20%. For the same compound, the “Pre-emergence herbicidal action AMARE” value in the assay on Amaranthus retroflexus is recorded as 0%.

The values above are taken from patent publication US20190166840A1, “SUBSTITUTED PYRAZOLINYL DERIVATIVES, PROCESSES FOR THEIR PREPARATION AND THEIR USE AS HERBICIDES AND/OR PLANT GROWTH REGULATORS” (BAYER CROPSCIENCE AKTIENGESELLSCHAFT, priority 2016, published 2019).
